Results from patent US20240009191A1, “METHOD AND COMPOSITION FOR THE TREATMENT OF DISEASE” (DIMERIX BIOSCIENCE PTY LTD, priority 2019, published 2024).

Key:
Format in all cases: cell-based
AT1R-CXCR2 heteromer [1] = target: T1, AT1R-CXCR2 heteromer (Homo sapiens, UniProt P25025+P30556); test: BRET Gi coupling, CXCR2/Rluc8, Venus/mGsi and HA-AT1R, pre-treatment with antagonists/inverse agonists; details: FIGS. 6-15; for effect of CXCL8 only on CXCR2/Rluc8-Venus/mGsi BRET: 10 nM CXCL8, 50 minutes after pre-treatment with antagonists/inverse agonists (10 μM); for effect of CXCL8 and AngII combined on CXCR2/Rluc8-Venus/mGsi BRET: 10 nM CXCL8 and 100 nM AngII; for effect of CXCL8 and AngII combined on CXCR2/Rluc8-Venus/mGsi BRET / effect of AngII only on CXCR2/Rluc8-Venus/mGsi BRET: 50 minutes after pre-treatment with antagonists/inverse agonists (10 μM); for effect of AngII only on CXCR2/Rluc8-Venus/mGsi BRET: 100 nM AngII
T1 sequence (P25025 1-360): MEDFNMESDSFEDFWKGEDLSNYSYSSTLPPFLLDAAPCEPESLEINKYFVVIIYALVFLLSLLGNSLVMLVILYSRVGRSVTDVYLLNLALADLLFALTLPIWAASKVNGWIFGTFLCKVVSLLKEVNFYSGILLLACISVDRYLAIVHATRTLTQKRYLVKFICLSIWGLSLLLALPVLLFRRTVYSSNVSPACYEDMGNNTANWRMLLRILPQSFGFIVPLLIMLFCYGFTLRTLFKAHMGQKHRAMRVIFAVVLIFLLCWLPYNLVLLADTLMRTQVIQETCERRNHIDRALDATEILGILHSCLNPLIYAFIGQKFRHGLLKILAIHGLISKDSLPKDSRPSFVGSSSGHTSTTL
T1 sequence (P30556 1-359): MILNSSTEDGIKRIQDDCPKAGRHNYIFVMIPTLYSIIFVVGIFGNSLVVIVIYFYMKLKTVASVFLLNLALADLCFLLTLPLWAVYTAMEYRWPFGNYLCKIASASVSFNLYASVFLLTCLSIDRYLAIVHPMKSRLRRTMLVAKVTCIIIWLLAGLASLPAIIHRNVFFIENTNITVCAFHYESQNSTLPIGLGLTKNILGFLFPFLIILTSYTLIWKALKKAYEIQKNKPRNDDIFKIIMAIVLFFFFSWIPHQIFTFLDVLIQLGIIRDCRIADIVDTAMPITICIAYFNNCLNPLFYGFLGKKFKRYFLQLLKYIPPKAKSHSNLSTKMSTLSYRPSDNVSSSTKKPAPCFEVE
Method: (§1) HEK293FT cells were seeded in 6-well plates at a density of approximately 700,000 cells/well and maintained at 37° C., 5% CO2 in Complete Media (DMEM containing 0.3 mg/ml glutamine, 100 IU/ml penicillin and 100 μg/ml streptomycin (Gibco/Thermo Fisher)) supplemented with 10% fetal calf serum (FCS; Bovogen). Transient transfections were carried out 24 h after seeding using FuGene6™ (Promega) according to manufacturer instructions. 24 h post-transfection, cells were washed with PBS, detached using 0.05% trypsin/0.53 mM EDTA, resuspended in HEPES-buffered phenol red free Complete Media containing 5% FCS and added to a poly-L-lysine-coated white 96-well microplate (Greiner Bio-One). 48 h post-transfection, bioluminescence resonance energy transfer (BRET) assays were carried out following pre-incubation of cells with EnduRen™ (Promega) at a final concentration of 30 μM, at 37° C., 5% CO2 for 2 h. BRET measurements were taken at 37° C. using the LUMlstar™ or CLARIOstar™ (BMG Labtech).
(§2) For antagonist/inverse agonist assays, cells were pre-incubated with EnduRen for 1.5 hours, followed by the addition of vehicle or antagonists/inverse agonists (10 μM) for another 30 minutes.
(§3) The BRET signal observed between interacting proteins is normalized by subtracting the background BRET ratio. […] In the following examples, the second calculation will be used and the signal is described as ligand-induced BRET′. Furthermore, for data shown in FIGS. 4 to 20, all data points in a given set are corrected relative to the final data point prior to agonist treatment, which is fixed to zero. In keys on FIGS. 7 to 20, “>” means “followed by after 50 minutes”, with agonists added at time zero on the x-axes.
(§4) Prior to agonist treatment (added at 0 minutes), a baseline BRET signal was recorded for each of the combinations for 20 minutes. Data were calculated as ligand-induced BRET relative to the ‘vehicle followed by vehicle’ (veh>veh) data set.

AT1R-CXCR2 heteromer [2] = target: T1, AT1R-CXCR2 heteromer; test: BRET trafficking of CXCR2/Rluc8 (Venus/Kras, Rab5, Rab8) with HA-AT1R, pre-treatment with vehicle or antagonists/inverse agonists; details: 50 minutes after pre-treatment (10 μM); for effect of both CXCL8 and AngII combined on CXCR2/Rluc8-Venus/Kras BRET / effect of both CXCL8 and AngII combined on CXCR2/Rluc8-Venus/Rab5 BRET / effect of both CXCL8 and AngII combined on CXCR2/Rluc8-Venus/Rab8 BRET: 10 nM CXCL8 and 100 nM AngII; for effect of both CXCL8 and AngII combined on CXCR2/Rluc8-Venus/Kras BRET: FIG. 16C, 16E-16H; for effect of both CXCL8 and AngII combined on CXCR2/Rluc8-Venus/Rab5 BRET: FIG. 17C, 17E-17H; for effect of both CXCL8 and AngII combined on CXCR2/Rluc8-Venus/Rab8 BRET: FIG. 18C, 18E-18H; for effect of AngII on CXCR2/Rluc8-Venus/Kras BRET / effect of AngII on CXCR2/Rluc8-Venus/Rab5 BRET / effect of AngII on CXCR2/Rluc8-Venus/Rab8 BRET: 100 nM AngII only; for effect of AngII on CXCR2/Rluc8-Venus/Kras BRET: FIG. 16B, 16D; for effect of AngII on CXCR2/Rluc8-Venus/Rab5 BRET: FIG. 17B, 17D; for effect of AngII on CXCR2/Rluc8-Venus/Rab8 BRET: FIG. 18B, 18D
Method: as §1, §2, §3, §4

AT1R-CXCR2 heteromer [3] = target: T2, AT1R-CXCR2 heteromer (Homo sapiens, UniProt P25025+P30556); test: BRET trafficking of AT1R/Rluc8 (Venus/Kras, Rab5) with unlabelled CXCR2, pre-treatment with vehicle or antagonists/inverse agonists; details: 50 minutes after pre-treatment (10 μM); for effect of both CXCL8 and AngII combined on AT1R/Rluc8-Venus/Kras BRET / effect of both CXCL8 and AngII combined on AT1R/Rluc8-Venus/Rab5 BRET: 10 nM CXCL8 and 100 nM AngII; for effect of both CXCL8 and AngII combined on AT1R/Rluc8-Venus/Kras BRET: FIG. 19B-19F; for effect of both CXCL8 and AngII combined on AT1R/Rluc8-Venus/Rab5 BRET: FIG. 20B-20F; for effect of AngII on AT1R/Rluc8-Venus/Kras BRET / effect of AngII on AT1R/Rluc8-Venus/Rab5 BRET: 100 nM AngII only; for effect of AngII on AT1R/Rluc8-Venus/Kras BRET: FIG. 19A; for effect of AngII on AT1R/Rluc8-Venus/Rab5 BRET: FIG. 20A
T2 sequence (P30556 1-359): T1 sequence (P30556 1-359)
T2 sequence (P25025 1-360): T1 sequence (P25025 1-360)
Method: as §1, §2, §3, §4

SMILES	effect of CXCL8 only on CXCR2/Rluc8-Venus/mGsi BRET (AT1R-CXCR2 heteromer [1])	effect of CXCL8 and AngII combined on CXCR2/Rluc8-Venus/mGsi BRET (AT1R-CXCR2 heteromer [1])	effect of AngII only on CXCR2/Rluc8-Venus/mGsi BRET (AT1R-CXCR2 heteromer [1])	effect of both CXCL8 and AngII combined on CXCR2/Rluc8-Venus/Kras BRET (AT1R-CXCR2 heteromer [2])	effect of both CXCL8 and AngII combined on CXCR2/Rluc8-Venus/Rab5 BRET (AT1R-CXCR2 heteromer [2])	effect of both CXCL8 and AngII combined on CXCR2/Rluc8-Venus/Rab8 BRET (AT1R-CXCR2 heteromer [2])	effect of AngII on CXCR2/Rluc8-Venus/Kras BRET (AT1R-CXCR2 heteromer [2])	effect of AngII on CXCR2/Rluc8-Venus/Rab5 BRET (AT1R-CXCR2 heteromer [2])	effect of AngII on CXCR2/Rluc8-Venus/Rab8 BRET (AT1R-CXCR2 heteromer [2])	effect of both CXCL8 and AngII combined on AT1R/Rluc8-Venus/Kras BRET (AT1R-CXCR2 heteromer [3])	effect of both CXCL8 and AngII combined on AT1R/Rluc8-Venus/Rab5 BRET (AT1R-CXCR2 heteromer [3])	effect of AngII on AT1R/Rluc8-Venus/Kras BRET (AT1R-CXCR2 heteromer [3])	effect of AngII on AT1R/Rluc8-Venus/Rab5 BRET (AT1R-CXCR2 heteromer [3])
O=C(Nc1ccc([N+](=O)[O-])cc1O)Nc1ccccc1Br [SB225002]	completely inhibited	indistinguishable from that observed with AngII only	not being altered	indistinguishable from the effect observed with AngII only	appears to inhibit the effect of AngII as well as that of CXCL8	indistinguishable from the effect observed with AngII only	did not alter	did appear to inhibit	did not alter	indistinguishable from the effect observed with AngII only	indistinguishable from the effect observed with AngII only	–	–
CCCCc1nc(Cl)c(CO)n1Cc1ccc(-c2ccccc2-c2nn[nH]n2)cc1 [losartan]	not being altered	indistinguishable from that observed with CXCL8 only	completely inhibited	–	–	–	–	–	–	–	–	–	–
CC[C@@H](Nc1c(Nc2cccc(C(=O)N(C)C)c2O)c(=O)c1=O)c1ccc(C)o1 [navarixin]	completely inhibited	indistinguishable from that observed with AngII only	not being altered	indistinguishable from the effect observed with AngII only	indistinguishable from the effect observed with AngII only	indistinguishable from the effect observed with AngII only	did not alter	did not alter	did not alter	indistinguishable from the effect observed with AngII only	indistinguishable from the effect observed with AngII only	–	–
CCOc1nc2cccc(C(=O)O)c2n1Cc1ccc(-c2ccccc2-c2nnn[nH]2)cc1 [candesartan]	not being altered	indistinguishable from that observed with CXCL8 only	completely inhibited	–	–	–	–	–	–	–	–	–	–
CCCc1nc2c(C)cc(-c3nc4ccccc4n3C)cc2n1Cc1ccc(-c2ccccc2C(=O)O)cc1 [telmisartan]	not being altered	indistinguishable from that observed with CXCL8 only	completely inhibited	–	–	–	–	–	–	–	–	–	–
Cc1c(F)cccc1NC(=O)Nc1ccc(Cl)c(S(=O)(=O)[C@H]2CCCNC2)c1O [danirixin]	completely inhibited	indistinguishable from that observed with AngII only	not being altered	–	–	–	–	–	–	indistinguishable from the effect observed with AngII only	indistinguishable from the effect observed with AngII only	–	–
CCCCC(=O)N(Cc1ccc(-c2ccccc2-c2nnn[nH]2)cc1)[C@H](C(=O)O)C(C)C [valsartan]	not being altered	indistinguishable from that observed with CXCL8 only	completely inhibited	indistinguishable from the effect observed with CXCL8 only	indistinguishable from the effect observed with CXCL8 only	completely inhibited	completely inhibited	completely inhibited	completely inhibited	completely inhibited	completely inhibited	completely inhibited	completely inhibited
CCCCC1=NC2(CCCC2)C(=O)N1Cc1ccc(-c2ccccc2-c2nnn[nH]2)cc1 [irbesartan]	not being altered	indistinguishable from that observed with CXCL8 only	completely inhibited	indistinguishable from the effect observed with CXCL8 only	indistinguishable from the effect observed with CXCL8 only	completely inhibited	completely inhibited	completely inhibited	completely inhibited	completely inhibited	completely inhibited	completely inhibited	completely inhibited
CCCCc1ncc(/C=C(\Cc2cccs2)C(=O)O)n1Cc1ccc(C(=O)O)cc1 [eprosartan]	not being altered	indistinguishable from that observed with CXCL8 only	completely inhibited	–	–	–	–	–	–	–	–	–	–
